In brackets after ≈: the same amount, converted by molar mass.
How the values were obtained:
[1] = tested on: Mycobacterium tuberculosis H37Rv; assay: microbe, parasite or virus in culture
Description: GSK_TB: Intracellular minimum inhibitory concentration (MIC) H37Rv assay

physchem [2] = conditions: phosphate buffered saline, pH 7.4
physchem [3] = conditions: buffer, pH 7.4
Description: GSK_TB: GSK in-house hydrophobicity assay at pH7.4 (logD)

physchem [4] = conditions: octanol/water
Description: GSK_TB: GSK in-house hydrophobicity assay (logP)

Row | SMILES | MIC90 [1] [µM] | solubility kinetic (physchem [2]) [µM] | logD (physchem [3]) | logP (physchem [4])
1 | Cc1cccc(-c2nc(Nc3ccncn3)c3sccc3n2)n1 | 0.5 (≈ 0.16 µg/mL) | – | – | –
2 | CCc1ccc(CN2CCC3(CC2)OCCc2sccc23)s1 | 1 (≈ 0.334 µg/mL) | – | – | –
3 | c1cc2c(s1)CCOC21CCN(Cc2ccc3c(c2)OCCO3)CC1 | 1 (≈ 0.357 µg/mL) | – | – | –
4 | O=C(NC12CC3CC(CC(C3)C1)C2)c1cc2cc(Cl)ccc2[nH]1 | 1 (≈ 0.329 µg/mL) | – | – | –
5 | COc1ccc(Nc2ccccc2NC(=O)c2ccc(O)nc2)cc1 | 7.08 (≈ 2.37 µg/mL) | 362 (≈ 121 µg/mL) | 2.92 | 2.97
6 | Cc1ccc(CNC(=O)c2cnn3c2NC(c2ccc(C)cc2)CC3C(F)F)cc1 (stereo not drawn) | 1.23 (≈ 0.505 µg/mL) | 1 (≈ 0.41 µg/mL) | 6.84 | 7.09
7 | CCCCS(=O)(=O)Nc1ccc2cnn(C)c2c1 | 1.3 (≈ 0.348 µg/mL) | 552 (≈ 148 µg/mL) | 3.48 | 3.58
8 | O=C(NC(Cc1ccccc1)C(=O)Nc1ccccc1N1CCOCC1)c1cccs1 (stereo not drawn) | 7.6 (≈ 3.31 µg/mL) | 64 (≈ 27.9 µg/mL) | 5.53 | 5.78
9 | O=C(Nc1nnc(-c2ccc(Cl)s2)o1)c1ccc(Cl)s1 | 7.76 (≈ 2.69 µg/mL) | – | – | –
10 | CCCOC(=O)COc1ccc2c(=O)c(-c3ccccc3OC)coc2c1 | 7.94 (≈ 2.93 µg/mL) | – | 6 | 6.24
11 | CCc1ccc(C2CC(C(F)(F)F)n3ncc(C(=O)NCc4cccs4)c3N2)cc1 (stereo not drawn) | 4.37 (≈ 1.9 µg/mL) | 1 (≈ 0.434 µg/mL) | 6.99 | 7.27
12 | O=C(c1[nH]nc2c1CCCC2)N1CCN(Cc2ccc3c(c2)OCO3)CC1 | 4.5 (≈ 1.66 µg/mL) | – | – | –
13 | c1ncn(-c2ccc(COc3ccc(-n4cncn4)cc3)cc2)n1 | 4.73 (≈ 1.51 µg/mL) | – | – | –
14 | NC(=O)c1cc(-c2ccsc2)ccc1OCCOc1ccccc1 | 3.5 (≈ 1.19 µg/mL) | 1 (≈ 0.339 µg/mL) | 5.44 | 5.78
15 | Br.CC1(C)NC(N)=NC(=N)N1OCCCOc1ccc(Cl)cc1Cl | 3.55 | 337 | 3.39 | 4.83
16 | O=C(OCc1c(F)cccc1Cl)c1ccc(-n2ncc(Cl)c(Cl)c2=O)cc1 | 4.9 (≈ 2.09 µg/mL) | 22 (≈ 9.41 µg/mL) | – | –
17 | CCc1ccc([C@@H]2C[C@H](C(F)(F)F)n3ncc(C(=O)NCc4ccc(OC)cc4)c3N2)cc1 | 4.9 (≈ 2.25 µg/mL) | – | – | –
18 | Fc1ccccc1-c1noc(N2CCN(Cc3ccc4c(c3)OCO4)CC2)n1 | 5.2 (≈ 1.99 µg/mL) | 10 (≈ 3.82 µg/mL) | 6.56 | 6.94

Row | SMILES | MIC90 [1] [µM] | solubility kinetic (physchem [2]) [µM] | logD (physchem [3]) | logP (physchem [4])
19 | CCn1c(=O)c(=O)[nH]c2cc(C(=O)Nc3ccccc3Nc3ccc(OC)cc3)ccc21 | 8.4 (≈ 3.62 µg/mL) | 47 (≈ 20.2 µg/mL) | 3.67 | 3.87
20 | O=C(CCSc1ccc(Cl)cc1)Nc1nc(-c2ccccn2)cs1 | 8.41 (≈ 3.16 µg/mL) | – | – | –
21 | O=C(C=Cc1ccccc1)N1CCN(Cc2ccc3c(c2)OCO3)CC1 | 3.7 (≈ 1.3 µg/mL) | – | 5.16 | 5.44
22 | Cc1cc(CN2CCC3(CC2)OCCc2sccc23)oc1C | 3.7 (≈ 1.17 µg/mL) | 289 (≈ 91.7 µg/mL) | – | –
23 | CSc1cccc(C(=O)Nc2nc(-c3ccccn3)cs2)c1 | 3.72 (≈ 1.22 µg/mL) | 12 (≈ 3.93 µg/mL) | 5.25 | 5.26
24 | CSc1ccc(C(=O)Nc2nc(-c3ccccn3)cs2)cc1 | 8.71 (≈ 2.85 µg/mL) | – | 5.07 | 5.06
25 | COc1ccc(CCNc2cc(-c3ccccc3)nc3ncnn23)cc1 | 0.6 (≈ 0.207 µg/mL) | – | – | –
26 | Br.CCc1ccccc1OCCCON1C(=N)N=C(N)NC1(C)C | 3.2 | 225 | 3.3 | 4.83
27 | Br.CC1(C)N=C(N)N=C(N)N1OCCc1ccc2ccccc2c1 | 2.32 | 201 | 2.92 | 4.23
28 | Br.CCCc1cc(C(C)=O)ccc1OCCCON1C(=N)N=C(N)NC1(C)C | 2.34 | 201 | 2.92 | 4.02
29 | Cc1cc(NCCc2ccccc2)nc(NC(=N)Nc2ccc(Cl)cc2)n1 | 2.37 (≈ 0.903 µg/mL) | 73 (≈ 27.8 µg/mL) | 4 | 6.74
30 | Br.Cc1ccccc1OCCCON1C(=N)N=C(N)NC1(C)C | 3.76 | 436 | 2.83 | 3.92
31 | c1cncc(NCc2ccc(-c3cc4ccncc4cc3OC3CCNCC3)s2)c1 | 8.61 (≈ 3.59 µg/mL) | 167 (≈ 69.6 µg/mL) | 1.9 | 4.23
32 | Clc1ccc(Nc2nc(-c3ccccn3)cs2)nc1 | 5.9 (≈ 1.7 µg/mL) | – | 5.35 | 6.53
33 | Cc1csc2nc(-c3ccccn3)nc(Nc3ccncn3)c12.O=C(O)C(F)(F)F | 1.7 | 231 | – | –
34 | Br.CC(C)(C)c1ccccc1OCCCON1C(=N)N=C(N)NC1(C)C | 2.3 | 363 | 4.04 | 6.14
35 | CSc1ccccc1C(=O)Nc1nc(-c2ccccn2)cs1 | 1.74 (≈ 0.569 µg/mL) | – | – | –
36 | Cn1cc(NC(=O)c2cc(NC(=O)CNC(=N)N)cn2C)cc1C(=O)NCCC(=N)N [NETROPSIN CHLORIDE] | 6.46 | – | – | –

Reference: ChEMBL document CHEMBL2095176, “GSK Tuberculosis Screening Data”
